Experimental data: patent EP0148440A1, “1,3,4,5-Tetrahydrobenzo(c,d)indoles, process for their preparation and their uses” (Troponwerke GmbH & Co. KG, priority 1983, dated 1985)

Molecular target: T1, 5-HT2 (Rattus norvegicus, UniProt P14842)
T1 construct: Präfrontaler Cortex-Ratte; from tissue; host or cells: rat prefrontal cortex membranes
Test: Affinity to serotonin receptors: 5-HT2, displacement of ^3H-Ketanserin
Type: binding
Settings: Präfrontaler Cortex-Ratte membranes, read-out: Inhibitionskonstante Ki

T1 sequence (P14842 whole entry): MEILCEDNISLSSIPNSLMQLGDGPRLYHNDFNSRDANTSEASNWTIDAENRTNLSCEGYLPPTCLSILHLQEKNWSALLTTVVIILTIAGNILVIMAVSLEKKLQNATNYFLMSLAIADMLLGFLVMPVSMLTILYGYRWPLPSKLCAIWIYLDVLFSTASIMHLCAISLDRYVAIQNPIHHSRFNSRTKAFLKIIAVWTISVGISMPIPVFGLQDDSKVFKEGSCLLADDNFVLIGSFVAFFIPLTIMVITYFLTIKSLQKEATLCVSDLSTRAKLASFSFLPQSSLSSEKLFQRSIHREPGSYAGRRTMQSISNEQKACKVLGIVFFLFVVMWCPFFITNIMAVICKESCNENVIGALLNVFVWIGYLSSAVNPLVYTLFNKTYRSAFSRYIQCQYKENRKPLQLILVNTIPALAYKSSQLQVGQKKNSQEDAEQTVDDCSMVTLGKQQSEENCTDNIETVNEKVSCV

Question: With CCCN(CCC)C1Cc2c[nH]c3ccc(OC)c(c23)C1 (stereo not shown) [Beispiel 1, 6-Methoxy-4-dipropylamino-1,3,4,5-tetrahydrobenz[c,d]-indol] as the compound, how does the Ki read?
Answer: Its Ki is 1800 nM.
